Reference: a melting point compilation (Tetko et al.; mined from patent text by program, amines drawn as free bases though some values may be those of a salt)

Row | melting point | Compound
1 | 110 to 111 °C | Cc1cccc(-c2nc(CCOc3ccc(/C=C/C=O)cc3)c(C)o2)c1
2 | 155 to 156 °C | CC(C)(C)OC(=O)N1C(=O)O[C@@H](c2ccc(F)cc2)[C@H]1Cc1ccc(C(F)(F)F)cc1 (racemic)
3 | 104 to 106 °C | COc1ccc2c(c1)nc(Cn1ccnc1)n2-c1ccccc1
4 | > 300 °C | O=C(O)c1ccccc1Sc1c(O)c2ccc(Cl)cc2[nH]c1=O
5 | 310 °C | O=C1NC(=O)c2c3ccccc3cc3cccc1c23
6 | 182 to 184 °C | COc1cc2c(cc1OC)C(C=Cc1ccc([N+](=O)[O-])cc1)=NN(C(C)=O)C(C)C2 (configuration not stated)
7 | 108 to 119 °C | CCCn1c(=O)cc(OCC)n(Cc2ccc(-c3ccccc3-c3nnn[nH]3)cc2)c1=O
8 | 124 °C | Cc1cccc(SCn2cc(F)cnc2=O)c1
9 | 57 to 63 °C | C=C1C(=O)c2cc(C)ccc2OC1c1ccccc1 (configuration not stated)
10 | 103 to 107 °C | Nc1ccccc1Sc1ccncc1
11 | 81 to 82 °C | O=C1CCC(CCC(=O)OCc2ccc(C(F)(F)F)cc2)N1 (configuration not stated)
12 | 129 to 132 °C | NC(=O)c1c(F)cccc1C(=O)O
13 | 253 to 255 °C | O=C(O)c1ccc2oc3c(c(=O)c2c1)CCCC3
14 | 202 to 203 °C | CC(=O)c1c(-c2ccc(F)cc2)[nH]c(-c2ccncc2)c1C
15 | 135 to 136 °C | CCOC(=O)c1coc2ccc(-c3nnc(C)o3)cc12
16 | 96 °C | OCc1ccc(Oc2cccnc2)c(C(F)(F)F)c1
17 | 141 to 142 °C | Cc1cc(Oc2cccc(C#CC(C)N(O)C(N)=O)c2)ccc1F (configuration not stated)
18 | 295 °C | NC(=O)c1cccc(-c2nc(=O)c3ccccc3s2)n1
19 | 144 °C | CCCC1=NN(c2cccnc2)C(=O)C1=CNc1ccccc1CC
20 | 143 to 145 °C | OCC1c2ccccc2-c2c1c1ccccc1c1ccccc21 (configuration not stated)
21 | 72 to 73 °C | CCC(C)c1nn(-c2ccc(C(F)(F)F)cn2)cc1CCCO (configuration not stated)

Row | melting point | Compound
22 | 143 to 148 °C | COc1cc(C=O)ccc1OCCCC(=O)O
23 | 128 to 131 °C | O=C(O)[C@H](CCc1ccccc1)NS(=O)(=O)c1ccc2c(c1)Cc1ccccc1-2
24 | 149 to 154 °C | Oc1ccc([C@H]2CC[C@@H](NCCOc3ccccc3)CC2)cc1
25 | 120 to 122 °C | CCNC(=S)Nc1cc(Cl)ccc1C
26 | 136 to 139 °C | CCn1cc(C(=O)NCc2ccc(Cl)cc2)c(=O)c2cc(CCCCO)sc21
27 | 207 to 208 °C | Cn1nc(C(=O)NCc2ccc(Cl)cc2)c(=O)c2cc(I)cnc21
28 | 86 to 92 °C | CC(=O)OCC=C(C)CS(=O)(=O)c1ccccc1
29 | 75 to 78 °C | COC(=O)C(C)N(C(=O)CCl)c1c(C)cccc1Cl (configuration not stated)
30 | 44.5 to 46 °C | O=Cc1ccc(CO)cc1
31 | 159 to 161 °C | COc1ccc2c(c1)CCC1C2CCC2(C)C1CCC2N(C=O)CCCO (configuration not stated)
32 | 94 to 97 °C | CCCCCCN(C)c1ccc(C=C2SC(=S)N(CC(=O)NS(=O)(=O)C(F)(F)F)C2=O)cc1
33 | 190 to 192 °C | COc1ccc(C=CC(=O)CC(=O)C=Cc2ccc(OC)c(O)c2)cc1O
34 | 51 to 53 °C | CCN(CC)C(=O)Oc1ccc2ccccc2c1
35 | 85 to 88 °C | CCCc1cc(F)c2oc(Cc3ccc(OC)cc3)c(C)c2c1OC(=O)OCC
36 | 185 to 187 °C | COc1ccc(-c2cncn2-c2ccc(S(C)(=O)=O)cc2)cc1
37 | 206 to 209 °C | O=C(O)CN1C(=O)C(=Cc2ccc(CO)o2)SC1=S
38 | 80 to 90 °C | C=CCOc1ccc(-c2cccc(C#N)c2)cc1
39 | 177 to 178 °C | O=C(O)CCCC(=O)c1cn(-c2cccnc2)c2ccccc12
40 | 71 to 72 °C | O=[N+]([O-])c1ccc2c(c1)OCC2
41 | 128 to 130 °C | O=C(CC(=O)N1CCOCC1)c1ccc2ccccc2c1O

Second part, the molecule before the results:

Row | Compound | melting point
42 | Cc1nc(N)nc(N)c1-c1c(Cl)cccc1Cl | 250 °C
43 | Cc1cc2ncc(C#N)c(Cl)c2s1 | 163 to 164 °C
44 | CC1Cc2cc3c(cc2C(c2ccccc2)N1)OCO3 (configuration not stated) | 89 to 91 °C
45 | CCOC(=O)c1sc(C(=O)OCC)c2c1OC=CCO2 | 198 to 200 °C
46 | CC(C)c1cc2c(s1)Sc1ccccc1NC2=S | 210 °C
47 | CCOC(=O)NC(=S)NC(C)C | 52.5 to 54 °C
48 | Oc1c(CN2CCCC2)cc(Nc2ccnc3cc(C(F)(F)F)ccc23)cc1CN1CCCC1 | 56 to 58 °C
49 | CN(c1cccc2cc(C3=NCC(C)(CN4CCOCC4)S3)[nH]c12)S(=O)(=O)c1cccs1 (configuration not stated) | 146 to 147 °C
50 | CCCCc1nc2c(N)nc3ccccc3c2n1CCCCCS(C)=O (configuration not stated) | 119 to 121 °C
51 | CCC(=O)OC1CCC2C3CCC4=CC(=O)CCC4(CO)C3CCC12C (configuration not stated) | 160 to 162 °C
52 | COc1ccccc1CCC(C)(O)CC1CCCCN1 (configuration not stated) | 115 to 116 °C
53 | Cc1cc2c(cc1-c1csc(C=O)c1)C(C)(C)CCC2(C)C | 144 to 146 °C
54 | CCCOc1ccccc1-c1nc2nc(N(CC)CCO)ncc2c(=O)[nH]1 | 141 to 142 °C
55 | N#CC(C#N)=C1N(CCCN2CCCC2)CCN1CCN1CCCC1 | 70 to 71 °C
56 | O=P(O)(O)CC(O)CNO (configuration not stated) | 153 to 155 °C
57 | CC(C)(C)C(=O)OCc1nc2cc3c(cc2c(=O)[nH]1)C(=O)CC3 | 185 to 190 °C
58 | CCCCCCCCCCCCn1c(=O)c(=O)[nH]c2c3ccccc3ccc21 | 180 °C
59 | CC(C)C1(C)CCNC1=O (configuration not stated) | 88 to 90 °C
60 | CON=C(c1cc(C)no1)c1ccccc1COc1ncc(C(F)(F)F)cc1Cl | 77 to 79 °C
61 | Cc1cccc(Nc2ncnc3ccc(-n4cnc5ccccc54)cc23)c1 | 245 to 246 °C
62 | COc1ccc(C(=O)OC2(c3nc4ccccc4s3)C=CC(=O)C=C2)cc1 | 137 °C

Row | Compound | melting point
63 | Cc1c(NC(=O)c2ccc(-c3ccc(F)cc3)c(F)c2)ccc2cc(CN3CCCCC3)cnc12 | 161 to 162 °C
64 | CSc1ccc(-c2c(Cl)nc(Cl)nc2-c2ccc(Cl)cc2)cc1 | 144 to 146 °C
65 | O=C(NC(Cc1ccc(OCc2ccccc2)cc1)C(=O)O)c1cc2ccc(-c3ccc(Cl)cc3)cc2[nH]1 (configuration not stated) | 202 to 204 °C
66 | COc1ccc(N2C(=O)[C@H](NC(=O)OC(C)(C)C)[C@@H]2CON2C(=O)c3ccccc3C2=O)cc1 (relative stereo) | 188 to 189 °C
67 | Cc1cc(SCC(CS(=O)(=O)c2ccc(-c3ccc(Cl)cc3)cc2)C(=O)O)nc(C)n1 (configuration not stated) | 170 to 172 °C
68 | CN1CCN(c2cc(Cl)cc3c2c(=O)n(Cc2cccc(O)c2)c(=O)n3Cc2ccccc2)CC1 | 234 to 236 °C
69 | COc1cc2cc3c(Nc4ccc(F)c(Cl)c4)c(C#N)cnc3cc2cc1OCCN1CCOCC1 | 237 to 242 °C
70 | CN(Cc1ccc(NC(=O)C2=Cc3cc(-c4ccc(-n5ccnc5)cc4)ccc3OCC2)cc1)C1CCOCC1 | 194 to 195 °C
71 | N#Cc1c(F)c(F)cc(C(=O)O)c1F | 187 to 190 °C
72 | NCCc1c2n(c3ccccc13)CCNCC2 | 77 to 80 °C
73 | COCCCn1ccc2c1CC(c1ccccc1Cl)C1C(=O)NC(=O)C21 (configuration not stated) | 75 to 90 °C
74 | CNC(=S)N(C)c1nccs1 | 68 to 69 °C
75 | NS(=O)(=O)c1ccc(NC(=O)Nc2ccc(Oc3ccccc3)cc2)cc1 | 236 to 237 °C
76 | Cc1cc(-n2ccnc2)c2cccc(OCc3c(Cl)ccc(S(=O)(=O)N4CCC[C@H]4C(=O)NCCCN(C)C(=O)OC(C)(C)C)c3Cl)c2n1 | 75 °C
77 | Clc1ccccc1C(Cl)(c1ccccc1)c1ccccc1 | 131 °C
78 | CN1C(=O)Nc2ccccc2C12NC(=O)NC2=O (configuration not stated) | > 280 °C
79 | CCCOc1c(OC)cc(N)c2ncccc12 | 73 to 74 °C
80 | O=C(Oc1ccccc1C(=O)Nc1cc(Cl)c(OC(=O)c2ccccc2)c(Cl)c1)c1ccccc1 | 157 to 160 °C
81 | CS(=O)(=O)c1ccc(-c2cnn(-c3cc(Cl)cc(Cl)c3)c(=O)c2-c2ccc(F)cc2)cc1 | 289 to 294 °C
82 | COc1ccc(C2C(=O)OC3=CC(O)(OC(C)=O)C=CC3=C2C)c(OC)c1 (configuration not stated) | 146 to 148 °C
83 | COCCc1nc2c(N)nc3ccccc3c2n1CCOCCN(C)C(=O)c1ccccc1 | 93.5 to 97 °C

Row | Compound | melting point
84 | O=C1Nc2cccnc2N(C(=O)CN2CCC(CCCN3CCCCC3)CC2)c2ccccc21 | 202 to 203 °C
85 | O=C(N1CCCC1)N1CCN(Cc2ccc3c(c2)-c2[nH]nc(-c4ccsc4)c2C3)CC1 | 214 to 216 °C
86 | COC(=O)C1(O)CSC(SC(C)=O)=C1Cl (configuration not stated) | 133 to 135 °C
87 | CCCn1nc2c(N)nc3ccccc3c2c1CCCCS(=O)(=O)N(C)C | 144 to 146 °C
88 | Cn1cc(C2=C(c3c4n(c5ccccc35)CCN(C(=O)Oc3ccccc3)C4)C(=O)NC2=O)c2ccccc21 | 160 to 165 °C
89 | CC(=O)NC[C@H]1CN(c2ccc(N3CCC(n4nnc(N5CCN(Cc6ccccc6)CC5)n4)CC3)c(F)c2)C(=O)O1 | 202 to 204 °C
90 | COC1CCN(c2c(Cl)cc3c4c(cccc24)C(=O)N(O)C3=O)C1 (configuration not stated) | 136 to 142 °C
91 | CCOC(=O)N1CCc2c([nH]c3ccc(Cl)cc23)C1C1(C(N)=O)CCC1 (configuration not stated) | 200 to 220 °C
92 | O=C1CCC(=O)N1Cc1nc2sc3c(c2c(-c2ccc(Cl)cc2)c1Cl)CCNC3 | 230 to 231 °C
93 | O=c1c2ccccc2ncn1C1CCN(CCC(CC(F)(F)F)c2ccccc2)CC1 (configuration not stated) | 128 to 129 °C
94 | O=C(O)c1oc2cc(O)ccc2c(=O)c1C(=O)O | 255 to 257 °C
95 | CCCCCCCCCCCCCCCCCCSC(C)CC#N (configuration not stated) | 38 °C
96 | COc1cc2c(c3c1OC(C)(C)C3)C(c1cccc(N(C)C(N)=O)c1)=NC(C)(C)C2 | 108 to 109 °C
97 | O=C(NCCOc1ncc(C(F)(F)F)cc1Cl)c1cc([N+](=O)[O-])ccc1Cl | 126 to 127 °C
98 | COC(=O)CCC(CS(=O)(=O)c1ccc2ccccc2c1)C(=O)N(CCC1CCCCC1)CCC1CCCCC1 (configuration not stated) | 116 to 118 °C
99 | Cn1c(C(F)(F)F)cc(=O)n(-c2ccc(Cl)c3nc(C(C)(C)C)oc23)c1=O | 146 to 148 °C
100 | CC(C)N1C(=O)CO[C@@H]2c3cc(F)ccc3OCC[C@H]21 (relative stereo) | 127 to 143 °C
101 | C#CCOc1nc(C(F)(F)F)cc(=O)n1-c1cc(C(=O)OC(C)C)c(Cl)cc1F | 117 to 119 °C
102 | CN(C)CCNC(=O)c1ccc(-c2cccc(CSCCOc3ccccc3)c2)cc1 | 75 to 78 °C
